Experimental data reported in patent US9957273B2, “5-substituted 7- [4-(2-pyridyl)phenylmethylamino] -3-isopropylpyrazolo4,3-D]pyrimidine derivatives, use thereof as medicaments, and pharmaceutical compositions” (USTAV EXPERIMENTALNI BOTANIKY AV CR, V.V.I., priority 2015, dated 2018).
Where two headings read alike, the source gives them in different places.

Key:
[1] = test system: K562 (human chronic myelogenous leukaemia); assay: MTT cytotoxicity assay, leukemic cell line K562; type: cell-based; conditions: three days
Text: (§1) Cytotoxicity of the compounds is the major property determining their antileukemic efficacy in vivo. One of the parameters used, as the basis for cytotoxicity assays, is the metabolic activity of viable cells. For example, a microtiter assay, which uses (3-(4,5-dimethylthiazol-2-yl)-2,5-diphenyltetrazolium bromide (MTT), is widely used to quantitate cell proliferation and cytotoxicity. This assay is widely used in drug screening programs and in chemosensitivity testing. Because only metabolically active living cells reduce MTT to correspond purple formazan dye, these assays detect viable cells exclusively. The quantity of reduced MTT corresponds to the number of vital cells in the culture.
(§2) The compounds were assayed using the following leukemic cell lines: K562 (human chronic myelogenous leukaemia), HL60 (human promyelocytic leukaemia), CEM (human lymphoblastoid leukaemia), THP1 (human monocytic cell line), MV4; 11 (acute myelocytic leukemia). All cell lines were grown in RPMI medium supplemented with fetal bovine serum and L-glutamine and maintained at 37° C. in a humidified atmosphere with 5% CO2. For cytotoxicity assays, 2000-5000 cells were seeded into each well of 96 well plate, allowed to stabilize for at least 8 h and then tested compounds were added at various concentrations ranging from 100 to 0.01 μM in triplicates. After three days, MTT solution (5 mg/ml; Sigma, St. Louis, USA) was added to cells and medium was replaced with DMSO after five hours. The absorbance was measured at 620 nm by employing a microplate reader. MTT assays were repeated 3 times for each drug application and untreated cells were used as reference.

[2] = test system: HL60 (human promyelocytic leukaemia); assay: MTT cytotoxicity assay, leukemic cell line HL60; type: cell-based; conditions: three days
Text: as §1, §2

[3] = test system: CEM (human lymphoblastoid leukaemia); assay: MTT cytotoxicity assay, leukemic cell line CEM; type: cell-based; conditions: three days
Text: as §1, §2

[4] = test system: THP1 (human monocytic cell line); assay: MTT cytotoxicity assay, leukemic cell line THP1; type: cell-based; conditions: three days
Text: as §1, §2

[5] = test system: MV4;11 (acute myelocytic leukemia); assay: MTT cytotoxicity assay, leukemic cell line MV4;11; type: cell-based; conditions: three days
Text: as §1, §2

CDK2/Cyclin E = biological target: T1, CDK2/Cyclin E (Homo sapiens, UniProt P24941); assay: CDK2/Cyclin E kinase inhibition (33P-ATP, histone H1); type: biochemical; conditions: 15 μM ATP
T1 construct: made in house; host or cells: Sf9 insect cells (baculovirus)
Description: CDK2/Cyclin E kinase was produced in Sf9 insect cells via baculoviral infection and purified on a NiNTA column (Qiagen). The kinase reactions were assayed with 1 mg/mL histone H1 in the presence of 15 μM ATP, 0.05 μCi [γ-^33P]ATP and of the test compound in a final volume of 10 μL, all in a reaction buffer (60 mM HEPES-NaOH, pH 7.5, 3 mM MgCl2, 3 mM MnCl2, 3 μM Na-orthovanadate, 1.2 mM DTT, 2.5 μg/50 μl PEG20.000). CDK5/p35 was purchased from ProQinase GmbH. The kinase reactions were assayed with 1 mg/mL histone H1 in the presence of 0.15 μM ATP, 0.05 μCi [γ-^33P]ATP and of the test compound in a final volume of 10 μL, all in a reaction buffer (60 mM HEPES-NaOH, pH 7.5, 3 mM MgCl2, 3 mM MnCl2, 3 μM Na-orthovanadate, 1.2 mM DTT, 2.5 μg/50 μl PEG20.000).
(§3) The reactions were stopped by adding 5 μL of 3% aq H3PO4. Aliquots were spotted onto P-81 phosphocellulose (Whatman), washed 3× with 0.5% aq H3PO4 and finally air-dried.

CDK5/p35 = biological target: T2, CDK5/p35 (Homo sapiens, UniProt Q00535); assay: CDK5/p35 kinase inhibition (33P-ATP, histone H1); type: biochemical; conditions: 0.15 μM ATP
T2 construct: purchased ProQinase GmbH
Description: CDK2/Cyclin E kinase was produced in Sf9 insect cells via baculoviral infection and purified on a NiNTA column (Qiagen). […] CDK5/p35 was purchased from ProQinase GmbH.
as §3

[6] = test system: HUVECs (human umbilical vein endothelial cells); assay: HUVEC proliferation assay (crystal violet); type: cell-based; conditions: 72 h, read-out: Inhibition of proliferation (EC50)
Description: To verify that novel compounds have anti-vascularisation properties, we analyzed their influence on the proliferation and migration of HUVECs. HUVECs (human umbilical vein endothelial cells) were purchased from Promocell (Heidelberg, Germany) and cultured in endothelial cell growth medium (ECGM, Promocell, Heidelberg, Germany) containing 10% FCS (Biochrom, Berlin, Germany). Experiments were performed using cells at passage 3.
For proliferation assay, 1.5×10^3 HUVECs were cultured for 24 h. Afterwards, cells were either left untreated or treated with novel compounds for 72 h. Proliferation assay was performed using crystal violet as described previously (Koltermann et al. 2007, Cell Mol. Life Sci. 64:1715-1722).

[7] = test system: G361 (malignant melanoma); assay: MTT cytotoxicity assay, solid cancer cell line G361; type: cell-based; conditions: Homo sapiens, G-361, 72 h, three days
Description: as §2, with “following” for “following leukemic”, “G361 (malignant melanoma), MCF7 (breast adenocarcinoma), PLC/PRF/5 (liver hepatoma), PANC-1 (pancreatic carcinoma) and HCT116 (colon carcinoma).” for “K562 (human chronic myelogenous leukaemia), HL60 (human promyelocytic leukaemia), CEM (human lymphoblastoid leukaemia), THP1 (human monocytic cell line), MV4; 11 (acute myelocytic leukemia).”, “DMEM” for “RPMI”, “4000-10000” for “2000-5000”, “of a” for “of”, “16” for “8”

[8] = test system: PLC/PRF/5 (liver hepatoma); assay: MTT cytotoxicity assay, solid cancer cell line PLC/PRF/5; type: cell-based; conditions: Homo sapiens, PLC-PRF-5, 72 h, three days
Description: as §2, with “following” for “following leukemic”, “G361 (malignant melanoma), MCF7 (breast adenocarcinoma), PLC/PRF/5 (liver hepatoma), PANC-1 (pancreatic carcinoma) and HCT116 (colon carcinoma).” for “K562 (human chronic myelogenous leukaemia), HL60 (human promyelocytic leukaemia), CEM (human lymphoblastoid leukaemia), THP1 (human monocytic cell line), MV4; 11 (acute myelocytic leukemia).”, “DMEM” for “RPMI”, “4000-10000” for “2000-5000”, “of a” for “of”, “16” for “8”

[9] = test system: PANC-1 (pancreatic carcinoma); assay: MTT cytotoxicity assay, solid cancer cell line PANC-1; type: cell-based; conditions: Homo sapiens, PANC-1, 72 h, three days
Description: as §2, with “following” for “following leukemic”, “G361 (malignant melanoma), MCF7 (breast adenocarcinoma), PLC/PRF/5 (liver hepatoma), PANC-1 (pancreatic carcinoma) and HCT116 (colon carcinoma).” for “K562 (human chronic myelogenous leukaemia), HL60 (human promyelocytic leukaemia), CEM (human lymphoblastoid leukaemia), THP1 (human monocytic cell line), MV4; 11 (acute myelocytic leukemia).”, “DMEM” for “RPMI”, “4000-10000” for “2000-5000”, “of a” for “of”, “16” for “8”

HCT116 (colon carcinoma) = assay: MTT cytotoxicity assay, solid cancer cell line HCT116; type: cell-based; conditions: Homo sapiens, HCT-116, 72 h, three days
Description: as §2, with “following” for “following leukemic”, “G361 (malignant melanoma), MCF7 (breast adenocarcinoma), PLC/PRF/5 (liver hepatoma), PANC-1 (pancreatic carcinoma) and HCT116 (colon carcinoma).” for “K562 (human chronic myelogenous leukaemia), HL60 (human promyelocytic leukaemia), CEM (human lymphoblastoid leukaemia), THP1 (human monocytic cell line), MV4; 11 (acute myelocytic leukemia).”, “DMEM” for “RPMI”, “4000-10000” for “2000-5000”, “of a” for “of”, “16” for “8”

[10] = test system: MCF7 (breast adenocarcinoma); assay: MTT cytotoxicity assay, solid cancer cell line MCF7; type: cell-based; conditions: Homo sapiens, MCF7, 72 h, three days
Description: as §2, with “following” for “following leukemic”, “G361 (malignant melanoma), MCF7 (breast adenocarcinoma), PLC/PRF/5 (liver hepatoma), PANC-1 (pancreatic carcinoma) and HCT116 (colon carcinoma).” for “K562 (human chronic myelogenous leukaemia), HL60 (human promyelocytic leukaemia), CEM (human lymphoblastoid leukaemia), THP1 (human monocytic cell line), MV4; 11 (acute myelocytic leukemia).”, “DMEM” for “RPMI”, “4000-10000” for “2000-5000”, “of a” for “of”, “16” for “8”

T2 sequence (Q00535 whole entry): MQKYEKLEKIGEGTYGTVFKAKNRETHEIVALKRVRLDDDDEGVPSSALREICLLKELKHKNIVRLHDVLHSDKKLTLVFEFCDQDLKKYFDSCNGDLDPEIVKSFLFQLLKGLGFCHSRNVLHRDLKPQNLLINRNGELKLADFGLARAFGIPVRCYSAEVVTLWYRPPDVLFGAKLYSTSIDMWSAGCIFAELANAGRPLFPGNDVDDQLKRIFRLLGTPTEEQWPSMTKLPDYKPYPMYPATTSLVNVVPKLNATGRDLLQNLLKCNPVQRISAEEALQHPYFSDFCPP
T2 sequence (Q15078 whole entry partner): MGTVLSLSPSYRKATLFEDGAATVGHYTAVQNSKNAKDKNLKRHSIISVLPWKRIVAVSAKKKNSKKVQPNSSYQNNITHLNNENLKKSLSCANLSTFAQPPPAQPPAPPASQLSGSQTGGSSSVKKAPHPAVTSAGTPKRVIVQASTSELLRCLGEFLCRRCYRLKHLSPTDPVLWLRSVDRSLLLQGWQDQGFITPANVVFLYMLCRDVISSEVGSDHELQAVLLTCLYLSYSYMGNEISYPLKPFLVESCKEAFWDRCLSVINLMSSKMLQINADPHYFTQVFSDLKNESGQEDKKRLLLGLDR

Compound | IC50 (CDK2/Cyclin E) [µM] | IC50 (CDK5/p35) [µM] | IC50 ([1]; Homo sapiens, K562, 72 h) [µM] | IC50 ([2]; Homo sapiens, HL-60, 72 h) [µM] | IC50 ([3]; Homo sapiens, 72 h) [µM] | IC50 ([4]; Homo sapiens, THP-1, 72 h) [µM] | IC50 ([5]; Homo sapiens, MV4-11, 72 h) [µM] | also measured
CC(C)c1[nH]nc2c(NCc3ccc(-c4ccccn4)cc3)nc(NCCN3CCC3)nc12 [Compound 54] | 0.322 | 0.204 | 0.36 | 0.29 | 0.24 | 0.37 | 0.24 | 
CC(C)c1n[nH]c2c(NCc3ccc(-c4ccccn4)cc3)nc(S(C)(=O)=O)nc12 [Compound 8, 3-Isopropyl-5-methylsulfonyl-7-[4-(2-pyridyl)benzyl]amino-1(2)H-pyrazolo[4,3-d]pyridine] |  |  |  |  |  |  |  | EC50 [6]: 569 nM
CC(C)c1n[nH]c2c(NCc3ccc(-c4ccccn4)cc3)ncnc12 [Compound 2] |  | 0.183 |  | 0.92 | 0.8 | 0.56 | 0.47 | IC50 [7]: 0.78 µM; IC50 [8]: 0.97 µM; IC50 [9]: 0.46 µM; IC50 (HCT116 (colon carcinoma)): 1.2 µM
CC(C)c1n[nH]c2c(NCc3ccc(-c4ccccn4)cc3)nc(NCc3ccccc3Cl)nc12 [Compound 81] |  |  |  |  |  |  |  | EC50 [6]: 1330 nM
CCN(CC)CCNc1nc(NCc2ccc(-c3ccccn3)cc2)c2[nH]nc(C(C)C)c2n1 [Compound 50] |  |  |  |  |  |  |  | IC50 [1]: 0.18 µM; IC50 [2]: 0.14 µM; IC50 [3]: 0.11 µM; IC50 [4]: 0.08 µM; IC50 [5]: 0.17 µM

More lines, main results first:

IC50 (CDK2/Cyclin E) [µM] | IC50 (CDK5/p35) [µM] | Compound | IC50 ([1]; Homo sapiens, K562, 72 h) [µM] | IC50 ([2]; Homo sapiens, HL-60, 72 h) [µM] | IC50 ([3]; Homo sapiens, 72 h) [µM] | IC50 ([4]; Homo sapiens, THP-1, 72 h) [µM] | IC50 ([5]; Homo sapiens, MV4-11, 72 h) [µM] | also measured
 | 0.017 | CC(C)c1n[nH]c2c(NCc3ccc(-c4ccccn4)cc3)nc(NCC(O)CO)nc12 (centres unmarked) [Compound 35] | 0.24 | 0.17 | 0.18 | 0.26 | 0.2 | 
0.039 | 0.0149 | CC(C)c1[nH]nc2c(NCc3ccc(-c4ccccn4)cc3)nc(NCCCO)nc12 [Compound 29] | 0.1 | 0.18 | 0.09 | 0.14 | 0.27 | 
0.64 | 0.182 | CC(C)c1[nH]nc2c(NCc3ccc(-c4ccccn4)cc3)nc(NCCN3CCCC3)nc12 [Compound 55] |  |  |  |  |  | 
 | 0.179 | CC(C)c1[nH]nc2c(NCc3ccc(-c4ccccn4)cc3)nc(N[C@H]3CC[C@H](N)CC3)nc12 [Compound 67] | 0.59 | 0.24 | 0.23 | 0.3 | 0.19 | IC50 [7]: 0.36 µM; IC50 [10]: 0.47 µM; IC50 [8]: 0.29 µM; IC50 [9]: 0.5 µM; IC50 (HCT116 (colon carcinoma)): 0.37 µM; EC50 ([6]; Homo sapiens, HUVEC): 69 nM
